Data taken from ChEMBL document CHEMBL3769377, “A synthesis, in silico, in vitro and in vivo study of thieno[2,3-b]pyridine anticancer analogues” (Medchemcomm, 2015).
Calls of active or inactive are those of the source. The calls are words filed in the database; no cut-off is given here.

What was measured:
[1] = tested on: Epidermal growth factor receptor (Homo sapiens), P00533 [L858R]; experiment: Inhibition of human recombinant EGFR L858R mutant assessed as residual activity at 10 uM after 1 hr by qPCR analysis relative to control; assay type: protein assay
786-0 = experiment: Antitumor activity against human 786-0 cells xenografted in athymic nude/beige mouse assessed as reduction in tumor mass at 0.16 mg/kg, ip qd after 24 days; assay type: functional, organism-based
[2] = target: MAP/microtubule affinity-regulating kinase 3 (Homo sapiens) (UniProt P27448); experiment: Inhibition of human recombinant MARK3 assessed as residual activity at 10 uM after 1 hr by qPCR analysis relative to control
[3] = target: Mitogen-activated protein kinase 9 (Homo sapiens) (UniProt P45984); experiment: Inhibition of human recombinant JNK2 assessed as residual activity at 10 uM after 1 hr by qPCR analysis relative to control
[4] = target: Fibroblast growth factor receptor 2 (Homo sapiens) (UniProt P21802); experiment: Inhibition of human recombinant FGFR2 assessed as residual activity at 10 uM after 1 hr by qPCR analysis relative to control
[5] = target: Serine/threonine-protein kinase ULK2 (Homo sapiens) (UniProt Q8IYT8); experiment: Inhibition of human recombinant ULK2 assessed as residual activity at 10 uM after 1 hr by qPCR analysis relative to control
[6] = target: Protein kinase C epsilon type (Homo sapiens) (UniProt Q02156); experiment: Inhibition of human recombinant PRKCE assessed as residual activity at 10 uM after 1 hr by qPCR analysis relative to control
[7] = target: Tyrosine-protein kinase JAK3 (Homo sapiens) (UniProt P52333); experiment: Inhibition of human recombinant JAK3 (JH1 domain-catalytic) assessed as residual activity at 10 uM after 1 hr by qPCR analysis relative to control
[8] = tested on: Mast/stem cell growth factor receptor Kit (Homo sapiens), P10721 [V559D,T670I]; experiment: Inhibition of human recombinant KIT V559D/T670I double mutant assessed as residual activity at 10 uM after 1 hr by qPCR analysis relative to control
[9] = target: Testis-specific serine/threonine-protein kinase 1 (Homo sapiens) (UniProt Q9BXA7); experiment: Inhibition of human recombinant TSSK1B assessed as residual activity at 10 uM after 1 hr by qPCR analysis relative to control
[10] = target: RAC-alpha serine/threonine-protein kinase (Homo sapiens) (UniProt P31749); experiment: Inhibition of human recombinant AKT1 assessed as residual activity at 10 uM after 1 hr by qPCR analysis relative to control
[11] = tested on: Tyrosine-protein kinase ABL1 (Homo sapiens), P00519 [T315I]; experiment: Inhibition of human recombinant phosphorylated ABL1 T315I mutant assessed as residual activity at 10 uM after 1 hr by qPCR analysis relative to control
[12] = target: Serine/threonine-protein kinase 32C (Homo sapiens) (UniProt Q86UX6); experiment: Inhibition of human recombinant YANK3 assessed as residual activity at 10 uM after 1 hr by qPCR analysis relative to control
[13] = target: SRSF protein kinase 3 (Homo sapiens) (UniProt Q9UPE1); experiment: Inhibition of human recombinant SRPK3 assessed as residual activity at 10 uM after 1 hr by qPCR analysis relative to control
[14] = tested on: Mast/stem cell growth factor receptor Kit (Homo sapiens), P10721 [D816V]; experiment: Inhibition of human recombinant KIT D816V mutant assessed as residual activity at 10 uM after 1 hr by qPCR analysis relative to control
[15] = target: Mitogen-activated protein kinase 3 (Homo sapiens) (UniProt P27361); experiment: Inhibition of human recombinant ERK1 assessed as residual activity at 10 uM after 1 hr by qPCR analysis relative to control
[16] = target: Angiopoietin-1 receptor (Homo sapiens) (UniProt Q02763); experiment: Inhibition of human recombinant TIE2 assessed as residual activity at 10 uM after 1 hr by qPCR analysis relative to control
[17] = target: Serine/threonine-protein kinase DCLK1 (Homo sapiens) (UniProt O15075); experiment: Inhibition of human recombinant DCAMKL1 assessed as residual activity at 10 uM after 1 hr by qPCR analysis relative to control
[18] = target: Mitogen-activated protein kinase kinase kinase 4 (Homo sapiens) (UniProt Q9Y6R4); experiment: Inhibition of human recombinant MAP3K4 assessed as residual activity at 10 uM after 1 hr by qPCR analysis relative to control
[19] = target: Serine/threonine-protein kinase pim-3 (Homo sapiens) (UniProt Q86V86); experiment: Inhibition of human recombinant PIM3 assessed as residual activity at 10 uM after 1 hr by qPCR analysis relative to control
[20] = target: Mast/stem cell growth factor receptor Kit (Homo sapiens) (UniProt P10721); experiment: Inhibition of human recombinant KIT assessed as residual activity at 10 uM after 1 hr by qPCR analysis relative to control
[21] = target: Casein kinase I isoform delta (Homo sapiens) (UniProt P48730); experiment: Inhibition of human recombinant CSNK1D assessed as residual activity at 10 uM after 1 hr by qPCR analysis relative to control
[22] = target: Tyrosyl-DNA phosphodiesterase 1 (Homo sapiens, UniProt Q9NUW8); experiment: Inhibition of recombinant human N-terminal His-tagged TDP1 (1824 bp) expressed in Escherichia coli BL21(DE3) cells using 5'-(5,6 FAM-AAC GTC AGG GTC TTC C-BHQ1)-3' as substrate measured every 1 min by RT-PCR method
[23] = target: High affinity nerve growth factor receptor (Homo sapiens) (UniProt P04629); experiment: Inhibition of human recombinant TRKA assessed as residual activity at 10 uM after 1 hr by qPCR analysis relative to control
[24] = target: Tyrosine-protein kinase ABL1 (Homo sapiens) (UniProt P00519); experiment: Inhibition of human recombinant non-phosphorylated ABL1 assessed as residual activity at 10 uM after 1 hr by qPCR analysis relative to control
[25] = tested on: Serine/threonine-protein kinase B-raf (Homo sapiens), P15056 [V600E]; experiment: Inhibition of human recombinant BRAF V600E mutant assessed as residual activity at 10 uM after 1 hr by qPCR analysis relative to control
[26] = target: Mitogen-activated protein kinase 8 (Homo sapiens) (UniProt P45983); experiment: Inhibition of human recombinant JNK1 assessed as residual activity at 10 uM after 1 hr by qPCR analysis relative to control
[27] = target: Platelet-derived growth factor receptor alpha (Homo sapiens) (UniProt P16234); experiment: Inhibition of human recombinant PDGFRA assessed as residual activity at 10 uM after 1 hr by qPCR analysis relative to control
[28] = target: NUAK family SNF1-like kinase 2 (Homo sapiens) (UniProt Q9H093); experiment: Inhibition of human recombinant SNARK assessed as residual activity at 10 uM after 1 hr by qPCR analysis relative to control
[29] = target: Serine/threonine-protein kinase STK11 (Homo sapiens) (UniProt Q15831); experiment: Inhibition of human recombinant LKB1 assessed as residual activity at 10 uM after 1 hr by qPCR analysis relative to control

Platelet-derived growth factor receptor alpha (Homo sapiens), sequence (P16234 whole entry): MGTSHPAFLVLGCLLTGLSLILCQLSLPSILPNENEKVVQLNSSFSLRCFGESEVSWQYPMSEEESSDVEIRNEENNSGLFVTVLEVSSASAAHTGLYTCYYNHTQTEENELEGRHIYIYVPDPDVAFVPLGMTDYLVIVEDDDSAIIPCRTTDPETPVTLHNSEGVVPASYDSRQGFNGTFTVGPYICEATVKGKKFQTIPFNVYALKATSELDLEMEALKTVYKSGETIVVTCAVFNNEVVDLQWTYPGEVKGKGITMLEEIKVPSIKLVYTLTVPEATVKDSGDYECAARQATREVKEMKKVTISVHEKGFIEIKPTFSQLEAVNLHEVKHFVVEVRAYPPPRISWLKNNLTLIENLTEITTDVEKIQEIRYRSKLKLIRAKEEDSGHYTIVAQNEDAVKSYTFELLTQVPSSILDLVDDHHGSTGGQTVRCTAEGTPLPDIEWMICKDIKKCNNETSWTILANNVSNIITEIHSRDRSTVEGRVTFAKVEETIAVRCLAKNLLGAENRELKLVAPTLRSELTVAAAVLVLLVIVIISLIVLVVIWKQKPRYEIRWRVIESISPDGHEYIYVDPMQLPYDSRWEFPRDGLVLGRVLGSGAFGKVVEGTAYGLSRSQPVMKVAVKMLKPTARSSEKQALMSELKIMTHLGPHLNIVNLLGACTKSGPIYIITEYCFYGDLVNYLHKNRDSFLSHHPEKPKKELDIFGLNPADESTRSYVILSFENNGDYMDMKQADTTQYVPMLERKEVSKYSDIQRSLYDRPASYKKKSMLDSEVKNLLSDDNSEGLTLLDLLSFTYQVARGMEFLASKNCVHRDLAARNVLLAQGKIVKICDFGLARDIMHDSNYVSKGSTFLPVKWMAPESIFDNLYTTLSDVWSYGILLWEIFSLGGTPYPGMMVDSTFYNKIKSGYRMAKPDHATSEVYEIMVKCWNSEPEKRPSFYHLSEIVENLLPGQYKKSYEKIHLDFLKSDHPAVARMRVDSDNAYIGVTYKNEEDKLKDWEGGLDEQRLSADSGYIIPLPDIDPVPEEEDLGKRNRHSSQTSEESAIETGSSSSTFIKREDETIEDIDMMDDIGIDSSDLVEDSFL
RAC-alpha serine/threonine-protein kinase (Homo sapiens), sequence (P31749 whole entry): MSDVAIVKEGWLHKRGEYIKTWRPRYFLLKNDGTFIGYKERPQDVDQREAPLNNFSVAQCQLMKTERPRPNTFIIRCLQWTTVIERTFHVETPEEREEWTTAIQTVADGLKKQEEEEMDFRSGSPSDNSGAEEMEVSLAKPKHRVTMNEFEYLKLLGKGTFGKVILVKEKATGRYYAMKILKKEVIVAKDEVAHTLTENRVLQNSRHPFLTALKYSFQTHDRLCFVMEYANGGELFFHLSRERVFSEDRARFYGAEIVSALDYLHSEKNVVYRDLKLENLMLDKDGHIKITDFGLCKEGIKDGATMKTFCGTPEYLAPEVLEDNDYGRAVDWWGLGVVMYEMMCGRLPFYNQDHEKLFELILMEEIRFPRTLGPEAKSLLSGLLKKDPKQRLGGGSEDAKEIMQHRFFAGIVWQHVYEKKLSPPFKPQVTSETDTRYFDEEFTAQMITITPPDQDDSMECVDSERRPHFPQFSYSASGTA
MAP/microtubule affinity-regulating kinase 3 (Homo sapiens), sequence (P27448 whole entry, looked up): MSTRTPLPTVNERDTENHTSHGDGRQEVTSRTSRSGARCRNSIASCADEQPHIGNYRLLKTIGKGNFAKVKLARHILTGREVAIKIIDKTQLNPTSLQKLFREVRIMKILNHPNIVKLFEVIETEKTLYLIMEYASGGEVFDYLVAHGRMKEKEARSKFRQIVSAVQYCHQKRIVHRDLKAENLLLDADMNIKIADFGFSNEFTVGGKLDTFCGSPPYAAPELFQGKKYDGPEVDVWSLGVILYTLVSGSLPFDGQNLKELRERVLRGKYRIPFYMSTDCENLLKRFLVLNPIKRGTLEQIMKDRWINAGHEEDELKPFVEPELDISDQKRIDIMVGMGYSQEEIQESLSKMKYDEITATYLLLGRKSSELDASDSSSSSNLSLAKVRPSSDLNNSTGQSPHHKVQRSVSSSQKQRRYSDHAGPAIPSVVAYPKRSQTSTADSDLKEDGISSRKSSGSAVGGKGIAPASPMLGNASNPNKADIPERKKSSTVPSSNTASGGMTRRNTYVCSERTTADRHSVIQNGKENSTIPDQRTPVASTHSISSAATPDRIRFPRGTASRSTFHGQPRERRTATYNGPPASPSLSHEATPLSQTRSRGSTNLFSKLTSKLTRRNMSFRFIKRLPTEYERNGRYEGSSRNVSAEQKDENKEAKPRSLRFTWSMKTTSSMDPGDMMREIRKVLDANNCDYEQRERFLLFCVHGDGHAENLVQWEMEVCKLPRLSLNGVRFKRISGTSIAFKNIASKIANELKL
Testis-specific serine/threonine-protein kinase 1 (Homo sapiens), sequence (Q9BXA7 whole entry): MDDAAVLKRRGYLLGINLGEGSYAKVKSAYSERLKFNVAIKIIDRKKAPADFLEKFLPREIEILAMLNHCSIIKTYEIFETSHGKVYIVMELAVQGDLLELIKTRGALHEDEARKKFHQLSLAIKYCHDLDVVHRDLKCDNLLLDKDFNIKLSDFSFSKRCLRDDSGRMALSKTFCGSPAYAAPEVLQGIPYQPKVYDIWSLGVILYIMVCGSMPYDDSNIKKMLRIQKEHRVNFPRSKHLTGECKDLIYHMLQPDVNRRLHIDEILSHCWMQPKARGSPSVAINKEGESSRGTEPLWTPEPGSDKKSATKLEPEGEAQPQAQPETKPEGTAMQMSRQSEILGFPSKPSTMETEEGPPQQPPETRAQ
Serine/threonine-protein kinase ULK2 (Homo sapiens), sequence (Q8IYT8 whole entry): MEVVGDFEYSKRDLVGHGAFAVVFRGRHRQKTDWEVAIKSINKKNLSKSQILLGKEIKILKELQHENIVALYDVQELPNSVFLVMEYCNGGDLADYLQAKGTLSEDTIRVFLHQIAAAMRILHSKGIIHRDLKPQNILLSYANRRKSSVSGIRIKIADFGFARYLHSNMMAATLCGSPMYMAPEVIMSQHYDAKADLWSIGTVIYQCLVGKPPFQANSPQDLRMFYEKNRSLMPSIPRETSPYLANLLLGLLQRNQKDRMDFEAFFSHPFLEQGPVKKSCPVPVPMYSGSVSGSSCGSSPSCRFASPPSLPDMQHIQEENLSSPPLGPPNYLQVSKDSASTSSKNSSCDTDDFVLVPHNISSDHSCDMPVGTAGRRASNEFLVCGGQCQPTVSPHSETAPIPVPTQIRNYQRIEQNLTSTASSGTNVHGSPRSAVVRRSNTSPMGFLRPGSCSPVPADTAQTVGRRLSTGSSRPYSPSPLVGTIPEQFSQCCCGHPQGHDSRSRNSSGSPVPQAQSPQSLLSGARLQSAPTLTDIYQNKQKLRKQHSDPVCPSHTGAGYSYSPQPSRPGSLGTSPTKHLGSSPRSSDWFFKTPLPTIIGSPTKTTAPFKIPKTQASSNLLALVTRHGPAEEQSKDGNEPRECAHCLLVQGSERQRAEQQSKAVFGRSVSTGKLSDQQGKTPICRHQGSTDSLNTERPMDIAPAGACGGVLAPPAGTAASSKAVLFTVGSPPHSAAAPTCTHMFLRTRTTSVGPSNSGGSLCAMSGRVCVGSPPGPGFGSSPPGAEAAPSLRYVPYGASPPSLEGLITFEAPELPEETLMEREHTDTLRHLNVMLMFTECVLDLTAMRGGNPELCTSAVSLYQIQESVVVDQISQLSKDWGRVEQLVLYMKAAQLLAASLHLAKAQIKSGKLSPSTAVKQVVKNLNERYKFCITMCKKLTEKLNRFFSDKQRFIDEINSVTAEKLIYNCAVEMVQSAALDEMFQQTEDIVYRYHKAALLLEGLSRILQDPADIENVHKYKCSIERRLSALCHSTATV
Fibroblast growth factor receptor 2 (Homo sapiens), sequence (P21802 22-821 limits assumed): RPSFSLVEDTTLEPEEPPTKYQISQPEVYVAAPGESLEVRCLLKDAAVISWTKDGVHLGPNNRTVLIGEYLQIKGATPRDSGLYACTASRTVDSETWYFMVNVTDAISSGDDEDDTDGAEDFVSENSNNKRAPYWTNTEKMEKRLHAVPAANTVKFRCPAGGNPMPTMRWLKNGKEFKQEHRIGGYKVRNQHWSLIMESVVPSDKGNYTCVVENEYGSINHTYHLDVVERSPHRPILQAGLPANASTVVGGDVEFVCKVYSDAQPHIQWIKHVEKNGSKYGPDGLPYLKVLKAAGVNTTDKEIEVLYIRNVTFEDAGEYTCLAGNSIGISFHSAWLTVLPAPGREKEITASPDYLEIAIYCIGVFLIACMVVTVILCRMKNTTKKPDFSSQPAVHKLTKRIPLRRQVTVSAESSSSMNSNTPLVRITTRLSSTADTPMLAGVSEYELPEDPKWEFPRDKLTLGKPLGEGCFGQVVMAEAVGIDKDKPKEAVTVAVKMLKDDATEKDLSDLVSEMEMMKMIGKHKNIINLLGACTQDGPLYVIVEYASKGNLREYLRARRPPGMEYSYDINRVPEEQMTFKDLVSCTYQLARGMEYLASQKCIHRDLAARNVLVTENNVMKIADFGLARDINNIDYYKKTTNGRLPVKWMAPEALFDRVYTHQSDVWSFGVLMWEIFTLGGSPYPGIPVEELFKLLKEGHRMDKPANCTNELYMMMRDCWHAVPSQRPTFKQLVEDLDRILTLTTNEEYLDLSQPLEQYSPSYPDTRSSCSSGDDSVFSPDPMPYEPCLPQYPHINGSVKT

SMILES: Cc1c(Cl)cccc1NC(=O)c1sc2nc3c(cc2c1N)C(=O)CC3
- Activity [1]: 92%
- Activity (786-0): Active
- Activity [2]: 96%
- Activity [3]: 93%
- Activity [4]: 100%
- Activity [5]: 97%
- Activity [6]: 100%
- Activity [7]: 100%
- Activity [8]: 99%
- Activity [9]: 65%
- Activity [10]: 90%
- Activity [11]: 90%
- Activity [12]: 62%
- Activity [13]: 100%
- Activity [14]: 93%
- Activity [15]: 98%
- Activity [16]: 100%
- Activity [17]: 100%
- Activity [18]: 96%
- Activity [19]: 92%
- Activity [20]: 95%
- Activity [21]: 100%
- IC50 [22]: 2.2 µM
- Activity [23]: 84%
- Activity [24]: 98%
- Activity [25]: 90%
- Activity [26]: 100%
- Activity [27]: 100%
- Activity [28]: 100%
- Activity [29]: 76%
